Measured values reported in patent US20250115598A1 (Anaxis Pharma Pty Ltd, priority 2021, published 2025).

Legend:
human MLKL (full length) = human MLKL (full length) (Homo sapiens (Human), UniProt Q8NB16); test: KINOMEscan binding assay, human MLKL (full length); settings: KINOMEscan, Table 21; read-out: Human MLKL (full-length) (KD)
In short: (§1)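 Active-site competition binding: DNA-tagged kinase (T7 phage fusion from BL21-derived E. coli lysate, or HEK-293-expressed) captured on immobilized-ligand beads, with bound kinase in the eluate quantified by qPCR. Compounds ran as 11-point 3-fold dilutions, 1% DMSO, top 30,000 nM for most. Kd came from a Hill fit (slope −1).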

human RIPK1 = human RIPK1 (Homo sapiens (Human), UniProt Q13546); test: KINOMEscan binding assay, human RIPK1; settings: Table 21
In short: as §1

human RIPK3 = human RIPK3 (Homo sapiens (Human), UniProt Q9Y572); test: KINOMEscan binding assay, human RIPK3; settings: Table 21
In short: as §1

human RIPK3, sequence (Q9Y572 whole entry): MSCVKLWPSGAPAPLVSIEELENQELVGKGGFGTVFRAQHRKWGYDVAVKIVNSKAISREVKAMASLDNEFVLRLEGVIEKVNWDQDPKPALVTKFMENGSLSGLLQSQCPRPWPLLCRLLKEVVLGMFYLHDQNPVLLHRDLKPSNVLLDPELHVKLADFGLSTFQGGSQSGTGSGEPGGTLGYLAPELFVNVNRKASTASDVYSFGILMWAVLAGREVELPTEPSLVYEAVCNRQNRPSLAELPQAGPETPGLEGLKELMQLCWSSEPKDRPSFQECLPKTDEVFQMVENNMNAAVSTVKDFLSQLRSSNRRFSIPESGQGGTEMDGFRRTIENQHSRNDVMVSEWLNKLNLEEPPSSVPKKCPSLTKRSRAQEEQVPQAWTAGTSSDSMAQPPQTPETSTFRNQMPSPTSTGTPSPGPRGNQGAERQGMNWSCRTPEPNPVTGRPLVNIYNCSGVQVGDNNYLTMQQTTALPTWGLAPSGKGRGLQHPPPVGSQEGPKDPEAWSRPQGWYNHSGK
human MLKL (full length), sequence (Q8NB16 whole entry, the tested form may be a part): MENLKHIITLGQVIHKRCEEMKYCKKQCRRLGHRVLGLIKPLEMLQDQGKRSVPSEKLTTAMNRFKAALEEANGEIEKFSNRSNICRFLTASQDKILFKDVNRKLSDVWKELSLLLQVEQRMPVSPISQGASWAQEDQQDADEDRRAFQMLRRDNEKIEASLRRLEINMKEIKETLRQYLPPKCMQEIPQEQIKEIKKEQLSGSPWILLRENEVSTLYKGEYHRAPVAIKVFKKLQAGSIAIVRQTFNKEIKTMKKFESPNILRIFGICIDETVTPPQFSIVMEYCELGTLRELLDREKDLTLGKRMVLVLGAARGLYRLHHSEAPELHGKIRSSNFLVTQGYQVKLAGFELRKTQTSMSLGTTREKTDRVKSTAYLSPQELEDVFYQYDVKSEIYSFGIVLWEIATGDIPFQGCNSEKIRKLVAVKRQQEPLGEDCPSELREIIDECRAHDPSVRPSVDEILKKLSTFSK
human RIPK1, sequence (Q13546 whole entry): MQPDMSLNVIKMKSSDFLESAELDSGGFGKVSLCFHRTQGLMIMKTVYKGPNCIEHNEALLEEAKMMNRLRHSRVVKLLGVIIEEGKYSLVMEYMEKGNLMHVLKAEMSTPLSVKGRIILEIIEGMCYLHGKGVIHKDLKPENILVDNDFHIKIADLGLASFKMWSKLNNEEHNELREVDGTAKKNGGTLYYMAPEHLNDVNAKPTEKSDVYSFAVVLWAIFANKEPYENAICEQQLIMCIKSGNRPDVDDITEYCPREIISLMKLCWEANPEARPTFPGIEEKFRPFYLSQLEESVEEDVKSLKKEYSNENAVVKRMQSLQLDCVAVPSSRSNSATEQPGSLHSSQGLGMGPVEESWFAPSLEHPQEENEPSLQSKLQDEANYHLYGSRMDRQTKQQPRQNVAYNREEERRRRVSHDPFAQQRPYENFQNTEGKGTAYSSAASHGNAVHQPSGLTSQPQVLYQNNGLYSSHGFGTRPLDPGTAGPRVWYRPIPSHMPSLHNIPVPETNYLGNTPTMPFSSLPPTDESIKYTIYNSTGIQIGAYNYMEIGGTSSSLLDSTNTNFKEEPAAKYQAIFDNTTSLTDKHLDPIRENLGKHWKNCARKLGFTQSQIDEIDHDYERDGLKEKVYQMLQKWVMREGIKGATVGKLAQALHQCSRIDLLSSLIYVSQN

C[C@H](Oc1cc(-c2nn(C)c3c(-c4cnn(C5CC6(CNC6)C5)c4)cnc(N)c23)ccc1NS(=O)(=O)C(F)F)c1ccc(F)cc1 [Compound 78, (S)-N-(4-(7-(1-(2-azaspiro[3.3]heptan-6-yl)-1H-pyrazol-4-yl)-4-amino-1-methyl-1H-pyrazolo[4,3-c]pyridin-3-yl)-2-(1-(4-fluorophenyl)ethoxy)phenyl)-1,1-difluoromethane-sulfonamide] was tested. Which Kd (human MLKL (full length)) did it give?
Its Kd is under 0.001 µM.

And the Kd (human RIPK1)?
Its Kd is over 10 µM.

What about the Kd (human RIPK3) of the same compound?
Its Kd is over 10 µM.

For C[C@H](Oc1cc(-c2nn(C)c3c(C#CC4CCNCC4)cnc(N)c23)ccc1NS(=O)(=O)C(F)F)c1ccc(F)cc1 [Compound 79, (S)—N-(4-(4-amino-1-methyl-7-(piperidin-4-ylethynyl)-1H-pyrazolo[4,3-c]pyridin-3-yl)-2-(1-(4-fluorophenyl)ethoxy)phenyl)-1,1-difluoromethanesulfonamide], which Kd (human MLKL (full length)) is on record?
The Kd was under 0.001 µM.

What about the Kd (human RIPK1) of the same compound?
Its Kd is over 10 µM.

And the Kd (human RIPK3)?
Its Kd is over 10 µM.

Which Kd (human MLKL (full length)) does the source give for CC(C)N(C)C(=O)C(C)n1cc(-c2cnc(N)c3c(-c4ccc(NS(=O)(=O)C(F)F)c(O[C@@H](C)c5ccc(F)cc5)c4)nn(C)c23)cn1 (stereo partly drawn) [Compound 81, 2-(4-(4-amino-3-(4-((difluoromethyl)sulfonamido)-3-((S)-1-(4-fluorophenyl)ethoxy)phenyl)-1-methyl-1H-pyrazolo[4,3-c]pyridin-7-yl)-1H-pyrazol-1-yl)-N-isopropyl-N-methylpropanamide] here?
Its Kd is under 0.001 µM.

And the Kd (human RIPK1)?
Its Kd is over 10 µM.

And the Kd (human RIPK3)?
The Kd was over 10 µM.

How did the Kd (human MLKL (full length)) turn out when CNCCn1cc(-c2cnc(N)c3c(-c4ccc(NS(=O)(=O)C(F)F)c(O[C@@H](C)c5ccc(F)cc5)c4)nn(C)c23)cn1 [Compound 82, (S)-N-(4-(4-amino-1-methyl-7-(1-(2-(methylamino)ethyl)-1H-pyrazol-4-yl)-1H-pyrazolo[4,3-c]pyridin-3-yl)-2-(1-(4-fluorophenyl)ethoxy)phenyl)-1,1-difluoromethanesulfonamide] was run?
The Kd was under 0.001 µM.

What about the Kd (human RIPK1) of the same compound?
The Kd was over 10 µM.

What about the Kd (human RIPK3) of the same compound?
Its Kd is over 10 µM.

For C[C@H](Oc1cc(-c2nn(C)c3c(-c4cnn(C5(CN)CC5)c4)cnc(N)c23)ccc1NS(=O)(=O)C(F)F)c1ccc(F)cc1 [Compound 89, (S)—N-(4-(4-amino-7-(1-(1-(aminomethyl)cyclopropyl)-1H-pyrazol-4-yl)-1-methyl-1H-pyrazolo[4,3-c]pyridin-3-yl)-2-(1-(4-fluorophenyl)ethoxy)phenyl)-1,1-difluoromethanesulfonamide], which Kd (human MLKL (full length)) is on record?
Its Kd is under 0.001 µM.

What about the Kd (human RIPK1) of the same compound?
Its Kd is over 10 µM.

What about the Kd (human RIPK3) of the same compound?
The Kd was over 10 µM.

Which results are given for C[C@H](Oc1cc(-c2nn(C)c3c(-c4cnn(C5CN(C)C5)c4)cnc(N)c23)ccc1NS(=O)(=O)C(F)F)c1ccc(F)cc1 [Compound 92, (S)-N-(4-(4-amino-1-methyl-7-(1-(1-methylazetidin-3-yl)-1H-pyrazol-4-yl)-1H-pyrazolo[4,3-c]pyridin-3-yl)-2-(1-(4-fluorophenyl)ethoxy)phenyl)-1,1-difluoromethanesulfonamide]?
Kd (human MLKL (full length)): < 0.001 µM; Kd (human RIPK1): > 10 µM; Kd (human RIPK3): > 10 µM

Which results are given for C[C@H](Oc1cc(-c2nn(C)c3c(-c4cnn(C5CCN(C)C5)c4)cnc(N)c23)ccc1NS(=O)(=O)C(F)F)c1ccc(F)cc1 (stereo partly drawn) [Compound 93, N-(4-(4-amino-1-methyl-7-(1-(1-methylpyrrolidin-3-yl)-1H-pyrazol-4-yl)-1H-pyrazolo[4,3-c]pyridin-3-yl)-2-((S)-1-(4-fluorophenyl)ethoxy)phenyl)-1,1-difluoromethanesulfonamide]?
Kd (human MLKL (full length)): < 0.001 µM; Kd (human RIPK1): > 10 µM; Kd (human RIPK3): > 10 µM

Which results are given for C[C@H](Oc1cc(-c2nn(C)c3c(-c4cnn(C5CNC5)c4)cnc(N)c23)ccc1NS(=O)(=O)C(F)F)c1ccc(F)cc1 [Compound 94, (S)-N-(4-(4-amino-7-(1-(azetidin-3-yl)-1H-pyrazol-4-yl)-1-methyl-1H-pyrazolo[4,3-c]pyridin-3-yl)-2-(1-(4-fluorophenyl)ethoxy)phenyl)-1,1-difluoromethane-sulfonamide]?
Kd (human MLKL (full length)): < 0.001 µM; Kd (human RIPK1): > 10 µM; Kd (human RIPK3): > 10 µM

Which Kd (human MLKL (full length)) does the source give for C[C@H](Oc1cc(-c2nn(C)c3c(-c4cnn(C5(C#N)CC5)c4)cnc(N)c23)ccc1NS(=O)(=O)C(F)F)c1ccc(F)cc1 [Compound 96, N-(4-{4-amino-7-[1-(1-cyanocyclopropyl)-1H-pyrazol-4-yl]-1-methyl-1H-pyrazolo[4,3-c]pyridin-3-yl}-2-[(1S)-1-(4-fluorophenyl)ethoxy]phenyl)-1,1-difluoromethanesulfonamide] here?
The Kd was under 0.001 µM.

And the Kd (human RIPK1)?
The Kd was over 10 µM.

And the Kd (human RIPK3)?
The Kd was over 10 µM.

Which results are given for C[C@H](Oc1cc(-c2nn(C)c3c(-c4cnn(C(C)(C)CO)c4)cnc(N)c23)ccc1NS(=O)(=O)C(F)F)c1ccc(F)cc1 [Compound 97, (S)-N-(4-(4-amino-7-(1-(1-hydroxy-2-methylpropan-2-yl)-1H-pyrazol-4-yl)-1-methyl-1H-pyrazolo[4,3-c]pyridin-3-yl)-2-(1-(4-fluorophenyl)ethoxy)phenyl)-1,1-difluoromethanesulfonamide]?
Kd (human MLKL (full length)): < 0.001 µM; Kd (human RIPK1): > 10 µM; Kd (human RIPK3): > 10 µM

Which results are given for C[C@H](Oc1cc(-c2nn(C)c3c(-c4cnn(C5(CC#N)COC5)c4)cnc(N)c23)ccc1NS(=O)(=O)C(F)F)c1ccc(F)cc1 [Compound 98, (S)-N-(4-(4-amino-7-(1-(3-(cyanomethyl)oxetan-3-yl)-1H-pyrazol-4-yl)-1-methyl-1H-pyrazolo[4,3-c]pyridin-3-yl)-2-(1-(4-fluorophenyl)ethoxy)phenyl)-1,1-difluoromethanesulfonamide]?
Kd (human MLKL (full length)): < 0.001 µM; Kd (human RIPK1): > 10 µM; Kd (human RIPK3): > 10 µM

How did the Kd (human MLKL (full length)) turn out when C[C@H](Oc1cc(-c2nn(C)c3c(-c4cnn(CCN(C)C)c4)cnc(N)c23)ccc1NS(=O)(=O)C(F)F)c1ccc(F)cc1 [Compound 100, (S)-N-(4-(4-amino-7-(1-(2-(dimethylamino)ethyl)-1H-pyrazol-4-yl)-1-methyl-1H-pyrazolo[4,3-c]pyridin-3-yl)-2-(1-(4-fluorophenyl)ethoxy)phenyl)-1,1-difluoromethanesulfonamide] was run?
The Kd was under 0.001 µM.

What about the Kd (human RIPK1) of the same compound?
Its Kd is over 10 µM.

And the Kd (human RIPK3)?
Its Kd is over 10 µM.

What does the source list for CC(C)N(C)CC(C)n1cc(-c2cnc(N)c3c(-c4ccc(NS(=O)(=O)C(F)F)c(O[C@@H](C)c5ccc(F)cc5)c4)nn(C)c23)cn1 (stereo partly drawn) [Compound 101, N-(4-(4-amino-7-(1-(1-(isopropyl(methyl)amino)propan-2-yl)-1H-pyrazol-4-yl)-1-methyl-1H-pyrazolo[4,3-c]pyridin-3-yl)-2-((S)-1-(4-fluorophenyl)ethoxy)phenyl)-1,1-difluoromethanesulfonamide]?
Kd (human MLKL (full length)): < 0.001 µM; Kd (human RIPK1): > 10 µM; Kd (human RIPK3): > 10 µM

Which results are given for [2H]C([2H])([2H])N1CCC(n2cc(-c3cnc(N)c4c(-c5ccc(NS(=O)(=O)C(F)F)c(O[C@@H](C)c6ccc(F)cc6)c5)nn(C)c34)cn2)CC1 [Compound 103, (S)-N-(4-(4-amino-1-methyl-7-(1-(1-(methyl-d3)piperidin-4-yl)-1H-pyrazol-4-yl)-1H-pyrazolo[4,3-c]pyridin-3-yl)-2-(1-(4-fluorophenyl)ethoxy)phenyl)-1,1-difluoromethanesulfonamide]?
Kd (human MLKL (full length)): < 0.001 µM; Kd (human RIPK1): > 10 µM; Kd (human RIPK3): > 10 µM

With C[C@H](Oc1cc(-c2nn(C)c3c(-c4cnc(N5CCN(C)CC5)nc4)cnc(N)c23)ccc1NS(=O)(=O)C(F)F)c1ccc(F)cc1 [Compound 105, (S)-N-(4-(4-amino-1-methyl-7-(2-(4-methylpiperazin-1-yl)pyrimidin-5-yl)-1H-pyrazolo[4,3-c]pyridin-3-yl)-2-(1-(4-fluorophenyl)ethoxy)phenyl)-1,1-difluoromethanesulfonamide] as the compound, how does the Kd (human MLKL (full length)) read?
Its Kd is under 0.001 µM.

What about the Kd (human RIPK1) of the same compound?
Its Kd is over 10 µM.

And the Kd (human RIPK3)?
Its Kd is over 10 µM.

What does the source list for C[C@H](Oc1cc(-c2nn(C)c3c(-c4cnc(N5CCOCC5)nc4)cnc(N)c23)ccc1NS(=O)(=O)C(F)F)c1ccc(F)cc1 [Compound 110, (S)-N-(4-(4-amino-1-methyl-7-(2-morpholinopyrimidin-5-yl)-1H-pyrazolo[4,3-c]pyridin-3-yl)-2-(1-(4-fluorophenyl)ethoxy)phenyl)-1,1-difluoromethanesulfonamide]?
Kd (human MLKL (full length)): < 0.001 µM; Kd (human RIPK1): > 10 µM; Kd (human RIPK3): > 10 µM

With C[C@@H](Oc1cc(-c2nn(C)c3c(-c4cnn(C5CCOCC5)c4)cnc(N)c23)ccc1NS(=O)(=O)C(F)F)c1ccc(F)cc1 [Compound 121, (R)-N-(4-(4-amino-1-methyl-7-(1-(tetrahydro-2H-pyran-4-yl)-1H-pyrazol-4-yl)-1H-pyrazolo[4,3-c]pyridin-3-yl)-2-(1-(4-fluorophenyl)ethoxy)phenyl)-1,1-difluoromethane-sulfonamide] as the compound, how does the Kd (human MLKL (full length)) read?
The Kd was under 0.001 µM.

And the Kd (human RIPK1)?
Its Kd is over 10 µM.

And the Kd (human RIPK3)?
Its Kd is over 10 µM.

What does the source list for C[C@H](Oc1cc(-c2nn(C)c3c(-c4cnn(C5CCOCC5)c4)cnc(N)c23)ccc1NS(=O)(=O)C(F)F)c1cccc(Cl)c1 [Compound 122]?
Kd (human MLKL (full length)): < 0.001 µM; Kd (human RIPK1): > 10 µM; Kd (human RIPK3): > 10 µM

C[C@H](Oc1cc(-c2nn(C)c3c(-c4cnn(C(F)F)c4)cnc(N)c23)ccc1NS(=O)(=O)C(F)F)c1ccc(F)cc1 [Compound 123, (S)-N-(4-(4-amino-7-(1-(difluoromethyl)-1H-pyrazol-4-yl)-1-methyl-1H-pyrazolo[4,3-c]pyridin-3-yl)-2-(1-(4-fluorophenyl)ethoxy)phenyl)-1,1-difluoromethanesulfonamide] was tested. Which Kd (human MLKL (full length)) did it give?
Its Kd is under 0.001 µM.

And the Kd (human RIPK1)?
The Kd was over 10 µM.

And the Kd (human RIPK3)?
Its Kd is over 10 µM.

With Cn1nc(-c2ccc(NS(=O)(=O)C(F)F)c(OCc3cccc(Cl)c3)c2)c2c(N)ncc(-c3cnn(C4CCOCC4)c3)c21 [Compound 130, N-(4-(4-amino-1-methyl-7-(1-(tetrahydro-2H-pyran-4-yl)-1H-pyrazol-4-yl)-1H-pyrazolo[4,3-c]pyridin-3-yl)-2-((3-chlorobenzyl)oxy)phenyl)-1,1-difluoromethane-sulfonamide] as the compound, how does the Kd (human MLKL (full length)) read?
Its Kd is under 0.001 µM.

And the Kd (human RIPK1)?
Its Kd is over 10 µM.

What about the Kd (human RIPK3) of the same compound?
The Kd was over 10 µM.
